Test systems include ACHN renal; HCC-2998 colon; HCT-116 colon; HL-60(TB) leukemia; IGROV1 ovarian; PC-3 prostate; SF-295 CNS; T-47D breast; UACC-62 melanoma; UO-31 renal.
Common to all, as to assay: NCI anticancer screen, dose series, 48 h

SMILES strings stand for the structures. “And” between values parts separate entries of the source, which are not always exact repeats. Equal entries are not always repeated.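 Five compound concentrations were applied to cells in 96-well plates for 48 hours; endpoints were derived by simple linear interpolation of the resulting dose-response curve. GI50 marks 50% less growth. The concentration for full growth arrest is given as TGI.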

Consider `CCNCC(=O)Nc1ccc2c(c1)C(=O)c1ccc(NC(=O)CNCC)cc1C2=O`, for which the TGI in the assay on ACHN renal is 9.15 µM; with HCC-2998 colon it was 3.75 µM; in the assay on HCT-116 colon, 7.52 µM; in the assay with HL-60(TB) leukemia it was 8.81 µM; with IGROV1 ovarian, 19.5 µM; in the assay on PC-3 prostate, over 100 µM. In addition, the TGI in the assay with SF-295 CNS amounted to 14.2 µM; in the assay with T-47D breast, 17.1 µM; with UACC-62 melanoma, 17.8 µM; in the assay on UO-31 renal, 8.9 µM.

For the compound `N#Cc1c(N)nc2c(c1-c1ccc(Cl)cc1)COc1ccc(F)cc1-2`, the GI50 in the assay on ACHN renal is 15.9 µM; in the assay on HCC-2998 colon, 23.3 µM; in the assay on HCT-116 colon it was 36.8 µM; with HL-60(TB) leukemia, 26.5 µM; in the assay with IGROV1 ovarian, 14.8 µM; with PC-3 prostate, 29.7 µM. The GI50 was 16 µM with SF-295 CNS, 43.7 µM in the assay on T-47D breast, 15.1 µM in the assay with UACC-62 melanoma and 13.8 µM in the assay with UO-31 renal. Also, the TGI with ACHN renal is 52.1 µM; in the assay on HCC-2998 colon, 68.8 µM; in the assay on HCT-116 colon it was over 100 µM; in the assay with HL-60(TB) leukemia, 53.4 µM; in the assay with IGROV1 ovarian it was over 100 µM; in the assay with PC-3 prostate it was 65.7 µM. In addition, the TGI in the assay with SF-295 CNS is 37.1 µM; in the assay with T-47D breast, over 100 µM; in the assay with UACC-62 melanoma, 34.2 µM; in the assay on UO-31 renal, 39.2 µM.

`O=c1[nH]c(-c2ccc(Cl)c(Cl)c2)cn1-c1ccc(Cl)cc1`: the GI50 was 32.5 µM in the assay with ACHN renal; 25.2 µM with HCC-2998 colon; 15.8 µM in the assay with HCT-116 colon; 34.1 µM with HL-60(TB) leukemia; 22.6 µM in the assay on IGROV1 ovarian; 66.9 µM in the assay on PC-3 prostate. In addition, the GI50 in the assay on SF-295 CNS was 25 µM; in the assay on T-47D breast, 25.5 µM; in the assay with UACC-62 melanoma it was 26.2 µM; with UO-31 renal, 25.4 µM. For the same compound, the TGI with ACHN renal was over 100 µM; with HCC-2998 colon it was 87.9 µM; with HCT-116 colon it was 34 µM; with HL-60(TB) leukemia, over 100 µM; in the assay on IGROV1 ovarian, 79.5 µM; with PC-3 prostate, over 100 µM. For the same compound, the TGI in the assay with SF-295 CNS stood at 64 µM; with T-47D breast, 84.5 µM; in the assay with UACC-62 melanoma it was 78.3 µM; in the assay with UO-31 renal, 60.5 µM.

For the compound `CCOc1ccc(-c2nc3ccc(-c4nc5ccc(N6CCN(C)CC6)cc5[nH]4)cc3[nH]2)cc1`, the GI50 with ACHN renal was 0.631 µM and 1.18 µM; with HCC-2998 colon, 0.267 µM and 0.196 µM; with HCT-116 colon, 0.0397 µM; in the assay with HL-60(TB) leukemia, 1.2 µM and 0.162 µM; in the assay with IGROV1 ovarian it was 0.514 µM; with PC-3 prostate, 0.352 µM. In addition, the GI50 is 0.518 µM in the assay on SF-295 CNS, 0.299 µM in the assay on T-47D breast, 0.511 µM with UACC-62 melanoma and 2.54 µM in the assay with UO-31 renal. Further, the TGI in the assay with ACHN renal was 1.89 µM and 2.7 µM; with HCC-2998 colon, 0.543 µM and 0.415 µM; in the assay with HCT-116 colon, 0.26 µM; in the assay with HL-60(TB) leukemia, 1.23 µM; in the assay on IGROV1 ovarian, 2.44 µM; in the assay on PC-3 prostate, 6.19 µM. The TGI amounted to 2.63 µM in the assay with SF-295 CNS, 2.2 µM in the assay on T-47D breast, 1.96 µM with UACC-62 melanoma and 7.7 µM in the assay on UO-31 renal.

Turning to `Clc1cc(Br)ccc1-c1ccc(CNCC2CCNCC2)o1`, the GI50 in the assay on ACHN renal was 1.93 µM; in the assay on HCC-2998 colon it was 1.86 µM; with HCT-116 colon, 1.69 µM; in the assay with HL-60(TB) leukemia, 1.89 µM; in the assay with IGROV1 ovarian, 1.9 µM; in the assay on PC-3 prostate, 1.64 µM. The GI50 in the assay with SF-295 CNS was 1.94 µM; with T-47D breast, 1.98 µM; with UACC-62 melanoma, 1.69 µM; in the assay on UO-31 renal, 1.66 µM. Moreover, the TGI with ACHN renal is 3.66 µM; in the assay with HCC-2998 colon it was 3.45 µM; in the assay on HCT-116 colon it was 3.97 µM; in the assay with HL-60(TB) leukemia it was 3.99 µM; with IGROV1 ovarian, 3.86 µM; in the assay on PC-3 prostate it was 3.3 µM. Further, the TGI in the assay on SF-295 CNS was 3.99 µM; in the assay with T-47D breast, 3.93 µM; in the assay on UACC-62 melanoma, 3.21 µM; with UO-31 renal, 3.24 µM.

On to `COC(=O)[C@H](Cc1cn(C)cn1)NC(=O)[C@H](CC(C)C)NC(=O)Nc1cc(C(F)(F)F)cc(C(F)(F)F)c1`, for which the GI50 with ACHN renal is over 10 µM; in the assay with HCC-2998 colon, 5.62 µM; with HCT-116 colon, 2.14 µM; in the assay on HL-60(TB) leukemia, over 10 µM; with IGROV1 ovarian it was 4.63 µM; with PC-3 prostate, 4.64 µM. For the same compound, the GI50 in the assay on SF-295 CNS is over 10 µM; in the assay with T-47D breast, 6.56 µM; in the assay with UACC-62 melanoma, over 10 µM; in the assay with UO-31 renal, over 10 µM. The TGI in the assay on ACHN renal is over 10 µM; in the assay with HCC-2998 colon, over 10 µM; with HCT-116 colon it was 4.14 µM; in the assay with HL-60(TB) leukemia, over 10 µM; with IGROV1 ovarian it was over 10 µM; with PC-3 prostate it was over 10 µM. Besides, the TGI in the assay with SF-295 CNS, in the assay on T-47D breast, in the assay with UACC-62 melanoma and in the assay with UO-31 renal was over 10 µM in each case.

With `CCOC(=O)Cc1csc(NC(=O)C(OC(=O)c2ccc(Cl)cc2)c2ccccc2)n1` (stereo not given), the GI50 in the assay with ACHN renal is 62.1 µM; in the assay with HCC-2998 colon it was 50.9 µM; in the assay on HCT-116 colon, 29 µM; in the assay on HL-60(TB) leukemia it was 9.28 µM; with IGROV1 ovarian it was 47 µM; in the assay on PC-3 prostate it was 35.1 µM. For the same compound, the GI50 in the assay with SF-295 CNS was 24.6 µM; with T-47D breast, 63.1 µM; in the assay on UACC-62 melanoma it was 20.3 µM; in the assay with UO-31 renal, 47.1 µM. Further, the TGI with ACHN renal is over 100 µM; in the assay with HCC-2998 colon, over 100 µM; in the assay on HCT-116 colon, over 100 µM; with HL-60(TB) leukemia, 68.9 µM; with IGROV1 ovarian it was over 100 µM; in the assay on PC-3 prostate, over 100 µM. In addition, the TGI is 56.8 µM in the assay on SF-295 CNS, over 100 µM with T-47D breast, 46.5 µM in the assay on UACC-62 melanoma and over 100 µM in the assay on UO-31 renal.

The values are drawn from PubChem BioAssay (NCI).
